Our source for the IC50 values is ChEMBL document CHEMBL5634161, “Discovery of benzamide-based PI3K/HDAC dual inhibitors with marked pro-apoptosis activity in lymphoma cells” (Eur J Med Chem, 2023).

Structures are written as SMILES.

The target in assay [1] is Phosphatidylinositol 4,5-bisphosphate 3-kinase catalytic subunit alpha isoform (Homo sapiens, UniProt P42336). The experiment in a line: Inhibition of PI3Kalpha (unknown origin) using PIP2 as substrate incubated for 1 hrs in presence of ATP by ADP-Glo kinase assay. (In general: ADP-Glo turns the ADP formed in a reaction into a luminescent signal.)
The next assay has as its target Histone deacetylase 1 (Homo sapiens, UniProt Q13547). Description: Inhibition of HDAC1 (unknown origin) using Boc-Lys(acetyl)-AMC as substrate preincubated for 1 hrs followed by substrate addition and measured after 2 hrs by spectrophotometer based fluorometric assay.
The target of another assay is Histone deacetylase 3 (Homo sapiens, UniProt O15379). Description: Inhibition of HDAC3 (unknown origin) using Boc-Lys(acetyl)-AMC as substrate preincubated for 1 hrs followed by substrate addition and measured after 2 hrs by spectrophotometer based fluorometric assay.
In another assay the target is Histone deacetylase 2 (Homo sapiens, UniProt Q92769). Description: Inhibition of HDAC2 (unknown origin) using Boc-Lys(acetyl)-AMC as substrate preincubated for 1 hrs followed by substrate addition and measured after 2 hrs by spectrophotometer based fluorometric assay.
Histone deacetylase 2, sequence (Q92769 whole entry): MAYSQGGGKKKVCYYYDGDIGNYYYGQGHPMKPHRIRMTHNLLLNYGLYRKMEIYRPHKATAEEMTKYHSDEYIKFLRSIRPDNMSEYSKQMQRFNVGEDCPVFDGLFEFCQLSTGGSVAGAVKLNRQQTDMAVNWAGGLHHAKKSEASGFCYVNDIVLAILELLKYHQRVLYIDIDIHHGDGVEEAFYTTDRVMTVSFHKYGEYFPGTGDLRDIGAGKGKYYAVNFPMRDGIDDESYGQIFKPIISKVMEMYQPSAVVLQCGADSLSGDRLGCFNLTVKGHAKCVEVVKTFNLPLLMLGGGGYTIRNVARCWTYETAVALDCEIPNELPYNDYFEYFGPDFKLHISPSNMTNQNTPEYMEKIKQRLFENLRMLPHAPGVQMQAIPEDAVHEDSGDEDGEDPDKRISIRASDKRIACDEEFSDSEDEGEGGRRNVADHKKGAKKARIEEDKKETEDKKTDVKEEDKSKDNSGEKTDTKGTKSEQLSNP

Histone deacetylase 1, sequence (Q13547 whole entry): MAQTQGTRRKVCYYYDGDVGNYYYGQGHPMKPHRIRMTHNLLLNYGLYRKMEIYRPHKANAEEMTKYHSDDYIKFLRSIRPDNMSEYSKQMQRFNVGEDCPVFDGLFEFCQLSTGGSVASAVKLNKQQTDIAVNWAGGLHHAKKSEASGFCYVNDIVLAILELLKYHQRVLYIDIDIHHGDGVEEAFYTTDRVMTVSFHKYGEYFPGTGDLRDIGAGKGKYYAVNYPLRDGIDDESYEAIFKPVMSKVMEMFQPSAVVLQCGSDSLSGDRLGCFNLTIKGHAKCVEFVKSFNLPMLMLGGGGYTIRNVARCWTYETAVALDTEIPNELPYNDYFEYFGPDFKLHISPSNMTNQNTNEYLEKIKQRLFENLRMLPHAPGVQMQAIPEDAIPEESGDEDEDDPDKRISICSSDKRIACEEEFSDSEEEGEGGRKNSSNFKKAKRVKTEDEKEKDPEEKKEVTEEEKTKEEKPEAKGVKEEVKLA
Histone deacetylase 3, sequence (O15379 whole entry): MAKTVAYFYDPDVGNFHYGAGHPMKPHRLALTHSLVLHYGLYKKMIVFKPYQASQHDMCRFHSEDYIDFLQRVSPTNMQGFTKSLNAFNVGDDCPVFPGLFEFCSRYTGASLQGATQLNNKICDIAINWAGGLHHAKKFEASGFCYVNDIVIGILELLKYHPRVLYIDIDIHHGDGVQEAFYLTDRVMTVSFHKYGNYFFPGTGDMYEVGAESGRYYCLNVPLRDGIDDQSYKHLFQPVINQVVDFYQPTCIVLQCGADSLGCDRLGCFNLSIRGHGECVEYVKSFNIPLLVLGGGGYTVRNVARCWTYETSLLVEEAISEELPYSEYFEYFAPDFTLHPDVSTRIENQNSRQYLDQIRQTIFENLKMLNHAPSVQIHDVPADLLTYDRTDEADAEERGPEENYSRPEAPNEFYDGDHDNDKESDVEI
Phosphatidylinositol 4,5-bisphosphate 3-kinase catalytic subunit alpha isoform, sequence (P42336 whole entry, canonical isoform): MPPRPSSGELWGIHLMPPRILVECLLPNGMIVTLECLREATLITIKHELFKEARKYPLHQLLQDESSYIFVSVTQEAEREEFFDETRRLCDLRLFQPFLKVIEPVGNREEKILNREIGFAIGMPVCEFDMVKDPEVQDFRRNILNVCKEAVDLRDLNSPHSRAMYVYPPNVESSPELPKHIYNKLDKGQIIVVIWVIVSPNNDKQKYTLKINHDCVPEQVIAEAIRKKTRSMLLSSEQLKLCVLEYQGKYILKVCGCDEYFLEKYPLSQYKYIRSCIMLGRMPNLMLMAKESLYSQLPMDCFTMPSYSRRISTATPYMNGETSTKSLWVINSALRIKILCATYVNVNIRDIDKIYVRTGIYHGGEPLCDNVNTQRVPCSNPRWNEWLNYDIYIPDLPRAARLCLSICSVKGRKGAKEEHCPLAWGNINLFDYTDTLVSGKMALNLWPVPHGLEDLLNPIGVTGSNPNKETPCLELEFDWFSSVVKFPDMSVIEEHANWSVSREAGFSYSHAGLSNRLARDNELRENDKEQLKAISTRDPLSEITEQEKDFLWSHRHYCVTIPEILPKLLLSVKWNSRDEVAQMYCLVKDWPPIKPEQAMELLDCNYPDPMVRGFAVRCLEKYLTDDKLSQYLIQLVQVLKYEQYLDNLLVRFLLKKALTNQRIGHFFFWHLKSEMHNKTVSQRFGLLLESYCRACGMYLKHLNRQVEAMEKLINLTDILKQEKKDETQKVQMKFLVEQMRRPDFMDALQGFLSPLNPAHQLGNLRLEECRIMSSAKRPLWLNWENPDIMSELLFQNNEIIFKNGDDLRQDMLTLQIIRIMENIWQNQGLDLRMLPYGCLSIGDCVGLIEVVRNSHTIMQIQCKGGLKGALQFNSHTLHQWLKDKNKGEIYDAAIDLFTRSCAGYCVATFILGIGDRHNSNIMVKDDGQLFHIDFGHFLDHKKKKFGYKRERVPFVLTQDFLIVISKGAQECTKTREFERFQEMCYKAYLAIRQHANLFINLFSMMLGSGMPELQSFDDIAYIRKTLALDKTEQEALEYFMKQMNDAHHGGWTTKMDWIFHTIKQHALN

For the compound `Nc1ccccc1NC(=O)CNC(=O)c1ccc(NC(=O)Nc2ccc(-c3nc(N4CCOCC4)nc(N4CCOCC4)n3)cc2)cc1`, the half-maximal inhibitory concentration (IC50) – broadly, the point on the concentration scale where inhibition reaches its midpoint – was 37.7 nM in assay [1], 1950 nM at Histone deacetylase 1, over 10000 nM on Histone deacetylase 3 and over 10000 nM on Histone deacetylase 2.

Regarding `Nc1ccccc1NC(=O)CCCCCNC(=O)c1ccc(NC(=O)Nc2ccc(-c3nc(OC4CCOC4)nc(N4CCOCC4)n3)cc2)cc1` (centres undefined), the IC50 in assay [1] was 7.9 nM; on Histone deacetylase 1 it was 211 nM; at Histone deacetylase 3 it was 54 nM; on Histone deacetylase 2 it was 247 nM.

Turning to `Nc1ccccc1NC(=O)c1ccc(NC(=O)Nc2ccc(-c3nc(OC4COC4)nc(N4CCOCC4)n3)cc2)cc1`, the half-inhibitory concentration (IC50) was 2.4 nM in assay [1], over 10000 nM at Histone deacetylase 1, over 10000 nM on Histone deacetylase 3 and over 10000 nM against Histone deacetylase 2.

On to `Nc1ccccc1NC(=O)CCCCCNC(=O)c1ccc(NC(=O)Nc2ccc(-c3nc(OC4COC4)nc(N4CCOCC4)n3)cc2)cc1`, for which the IC50 in assay [1] came to 4.5 nM; on Histone deacetylase 1 it was 81.5 nM; against Histone deacetylase 3 it was 17.7 nM; at Histone deacetylase 2, 128 nM.

Turning to `COc1nc(-c2ccc(NC(=O)Nc3ccc(C(=O)Nc4ccc(F)c(F)c4N)cc3)cc2)nc(N2CCOCC2)n1`, the half-maximal inhibitory concentration (IC50) in assay [1] is 20.5 nM; against Histone deacetylase 1, over 10000 nM; against Histone deacetylase 2, over 10000 nM.

For `Nc1ccccc1NC(=O)CCCCNC(=O)c1ccc(NC(=O)Nc2ccc(-c3nc(N4CCOCC4)nc(N4CCOCC4)n3)cc2)cc1`, the half-maximal inhibitory concentration (IC50) in assay [1] was 13.3 nM; against Histone deacetylase 1, over 10000 nM; against Histone deacetylase 3, over 10000 nM; on Histone deacetylase 2, over 10000 nM.

Regarding `Nc1c(NC(=O)c2ccc(NC(=O)Nc3ccc(-c4nc(N5CCOCC5)nc(N5CCOCC5)n4)cc3)cc2)ccc(F)c1F`, the IC50 in assay [1] was 14.3 nM; at Histone deacetylase 1, over 10000 nM; against Histone deacetylase 3 it was 1410 nM; on Histone deacetylase 2, over 10000 nM.

As to `Nc1ccccc1NC(=O)CCCCCCCNC(=O)c1ccc(NC(=O)Nc2ccc(-c3nc(N4CCOCC4)nc(N4CCOCC4)n3)cc2)cc1`, the IC50 turned out to be 75.7 nM in assay [1], 345 nM on Histone deacetylase 1, 210 nM on Histone deacetylase 3 and 490 nM at Histone deacetylase 2.

As to `Nc1ccccc1NC(=O)c1ccc(NC(=O)Nc2ccc(-c3nc(N4CCOCC4)nc(N4CCOCC4)n3)cc2)cc1`, the IC50 in assay [1] is 6.5 nM; on Histone deacetylase 1, over 10000 nM; against Histone deacetylase 3 it was 134 nM; against Histone deacetylase 2 it was over 10000 nM.

Consider `Nc1ccccc1NC(=O)CCCCCCNC(=O)c1ccc(NC(=O)Nc2ccc(-c3nc(OC4CCOC4)nc(N4CCOCC4)n3)cc2)cc1` (centres undefined), for which the 50% inhibitory concentration (IC50) in assay [1] stood at 16.6 nM; against Histone deacetylase 1, 219 nM; on Histone deacetylase 3 it was 69.3 nM; at Histone deacetylase 2 it was 241 nM.

With `Nc1ccccc1NC(=O)CCCCCCNC(=O)c1ccc(NC(=O)Nc2ccc(-c3nc(OC4COC4)nc(N4CCOCC4)n3)cc2)cc1`, the IC50 in assay [1] was determined as 9 nM; at Histone deacetylase 1, 178 nM; on Histone deacetylase 3, 56.1 nM; at Histone deacetylase 2, 168 nM.

Consider `COc1nc(-c2ccc(NC(=O)Nc3ccc(C(=O)NCCCCCCC(=O)Nc4ccccc4N)cc3)cc2)nc(N2CCOCC2)n1`, for which the IC50 in assay [1] was determined as 88.3 nM; on Histone deacetylase 1, 336 nM; at Histone deacetylase 3 it was 24.6 nM; at Histone deacetylase 2, 459 nM.

For the compound `Nc1ccccc1NC(=O)CCNC(=O)c1ccc(NC(=O)Nc2ccc(-c3nc(N4CCOCC4)nc(N4CCOCC4)n3)cc2)cc1`, the IC50 in assay [1] is 51.7 nM; at Histone deacetylase 1, over 10000 nM; at Histone deacetylase 3 it was over 10000 nM; on Histone deacetylase 2, over 10000 nM.

As for `COc1nc(-c2ccc(NC(=O)Nc3ccc(C(=O)Nc4ccccc4N)cc3)cc2)nc(N2CCOCC2)n1`, the 50% inhibitory concentration (IC50) in assay [1] was 11.2 nM; on Histone deacetylase 1, over 10000 nM; against Histone deacetylase 3, 334 nM; against Histone deacetylase 2 it was over 10000 nM.

Consider `Nc1ccccc1NC(=O)CCCNC(=O)c1ccc(NC(=O)Nc2ccc(-c3nc(N4CCOCC4)nc(N4CCOCC4)n3)cc2)cc1`, for which the IC50 in assay [1] is 11.6 nM; on Histone deacetylase 1 it was over 10000 nM; against Histone deacetylase 3, over 10000 nM; at Histone deacetylase 2 it was over 10000 nM.
